Results: the supplement of paper PMC11003180

What was measured:
Experiment in all cases: drug sensitivity score (DSS) from 5-dose viability curve (DSS (area-based score, 0 = no response)); higher = more sensitive (stronger viability inhibition); extreme values may be limits of the assay
[1] = system: MDCK wild-type - doxycycline; conditions: doxycycline: none; 72 h
Summary of the method: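 For 72 h at 37 °C, parental MDCK cells (no doxycycline, 2000 cells/well) were incubated on 384-well plates pre-spotted with 528 oncology drugs at five doses from 1 to 10,000 nM. CellTiter-Glo luminescence served as the viability readout, scaled per plate between vehicle and positive controls. The Breeze pipeline then fitted dose-response curves to yield drug sensitivity scores.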

[2] = system: MDCK p60AmotL2-inducible + doxycycline (p60AmotL2 expressing); conditions: doxycycline: 10 ng/mL; 72 h
Summary of the method: (§1)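 Parental MDCK cells and MDCK cells with a doxycycline-inducible transgene were both grown with doxycycline at 10 ng/mL in the medium before plating, then dispensed at 2000 cells/well into 384-well plates pre-spotted with an oncology library of 528 drugs at five doses (1-10,000 nM). After 72 h at 37 °C, CellTiter-Glo luminescence was recorded and scaled on each plate between vehicle and positive controls. This scaled signal served as the viability readout, and drug sensitivity scores were derived from dose-response curve fits in the Breeze pipeline.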

[3] = system: MDCK wild-type + doxycycline; conditions: doxycycline: 10 ng/mL; 72 h
Summary of the method: as §1

SMILES | drug sensitivity score [1] | drug sensitivity score [2] | drug sensitivity score [3]
Cc1cc2c(C(=O)NC[C@H](C)c3ccccc3)c(O)c(O)cc2c(O)c1-c1c(C)cc2c(C(=O)NC[C@H](C)c3ccccc3)c(O)c(O)cc2c1O [Sabutoclax] | 13.9 | 23 | 19.3
CC#CC(=O)N1CCC[C@H]1c1nc(-c2ccc(C(=O)Nc3ccccn3)cc2)c2c(N)nccn12 [Acalabrutinib] | 0 | 0 | 0
O=C(Nc1c[nH]nc1-c1nc2ccc(CN3CCOCC3)cc2[nH]1)NC1CC1 [AT9283] | 0 | 6.5 | 2
CNC(=O)CN1CCC(Oc2cc3c(Nc4cccc(Cl)c4F)ncnc3cc2OC)CC1 [Sapitinib] | 1.2 | 12.9 | 4.5
CC(C)(C)Cn1c(N)nc2ccc(-c3[nH]c(C(C)(C)C)nc3-c3ccc(F)cc3)nc21 [Ralimetinib] | 0 | 4.4 | 3.5
COc1cc(N2CCC(N3CCN(C)CC3)CC2)ccc1Nc1ncnc(Nc2ccccc2S(=O)(=O)C(C)C)n1 [ASP3026] | 6.3 | 9.5 | 6.5
CCCCc1nc2cc(/C=C/C(=O)NO)ccc2n1CCN(CC)CC [Pracinostat] | 15 | 17.7 | 15.9
NC(=O)c1cccc2cn(-c3ccc([C@@H]4CCCNC4)cc3)nc12 [Niraparib] | 0.7 | 2.1 | 2.3
CC[C@H](C)C(=O)O[C@H]1C[C@@H](C)C=C2C=C[C@H](C)[C@H](CC[C@@H]3C[C@@H](O)CC(=O)O3)[C@H]21 [Lovastatin] | 0 | 0 | 0
CN1C(=O)N[C@H](Cc2c[nH]c3c(Cl)cccc23)C1=O [Necrostatin 2] | 0 | 0 | 0
Nc1ncn([C@H]2C[C@H](O)[C@@H](CO)O2)c(=O)n1 [Decitabine] | 1.1 | 0.6 | 0
Clc1ccc(C(c2ccccc2Cl)C(Cl)Cl)cc1 (stereo not given) [Mitotane] | 0 | 0 | 0
CC(C)[C@H](C(=O)Nc1ccc(C(=O)NO)cc1)c1ccccc1 [AR-42] | 10.4 | 14 | 12.4
O=C(CCCCCCC(=O)Nc1ccccc1)NO [Vorinostat] | 7.5 | 11.8 | 9.8
C[C@H]1O[C@@H](O[C@H]2[C@@H](O)C[C@H](O[C@H]3[C@@H](O)C[C@H](O[C@H]4CC[C@@]5(C)[C@H](CC[C@@H]6[C@@H]5C[C@@H](O)[C@]5(C)[C@@H](C7=CC(=O)OC7)CC[C@]65O)C4)O[C@@H]3C)O[C@@H]2C)C[C@H](O)[C@@H]1O [Digoxin] | 6 | 5.3 | 11.2
CNC(=O)c1cc(COc2nnc(Nc3ccc(Cl)cc3)c3ccoc23)ccn1 [Telatinib] | 0 | 0 | 0
COc1cc2c(Oc3ccc(NC(=O)C4(C(=O)Nc5ccc(F)cc5)CC4)cc3F)ccnc2cc1OCCCN1CCOCC1 [Foretinib] | 0 | 2.8 | 1.2
CC(C)[C@@H](CS(=O)(=O)C(C)C)N1C(=O)[C@@](C)(CC(=O)O)C[C@H](c2cccc(Cl)c2)[C@H]1c1ccc(Cl)cc1 [AMG-232] | 5.9 | 9.8 | 7.2

SMILES | drug sensitivity score [1] | drug sensitivity score [2] | drug sensitivity score [3]
CC/C(=C(\c1ccc(O)cc1)c1ccc(OCCN(C)C)cc1)c1ccccc1 [4-hydroxytamoxifen] | 1.2 | 5.7 | 4.3
CC(C)c1c(C(=O)Nc2ccccc2)c(-c2ccccc2)c(-c2ccc(F)cc2)n1CC[C@@H](O)C[C@@H](O)CC(=O)O [Atorvastatin] | 0 | 0.4 | 0
COc1cccc2c1C(=O)c1c(O)c3c(c(O)c1C2=O)C[C@@](O)(/C(CO)=N/NC(=O)CCCCCN1C(=O)C=CC1=O)C[C@@H]3O[C@H]1C[C@H](N)[C@H](O)[C@H](C)O1 [Aldoxorubicin] | 4.5 | 11.2 | 8.6
Cc1nc(Nc2ncc(C(=O)Nc3c(C)cccc3Cl)s2)cc(N2CCN(CCO)CC2)n1 [Dasatinib] | 4.9 | 13.7 | 1.8
O[C@H]1CC[C@H](Nc2ncc3nc(Nc4c(F)cc(F)cc4F)n([C@H]4CCOC4)c3n2)CC1 [Tanzisertib] | 0 | 0.9 | 0.1
COc1ccc(-c2ccc3ncc4c(c3c2)n(-c2ccc(N3CCNCC3)c(C(F)(F)F)c2)c(=O)n4C)cn1 [NVP-BGT226] | 11.8 | 18.9 | 13.5
CC(C)(C#N)c1cc(Cn2cncn2)cc(C(C)(C)C#N)c1 [Anastrozole] | 0 | 0 | 0
COc1ccc(COc2cc3oc(=O)c4cc(C(C)O)ccc4c3cc2OC)cc1 (stereo not given) [Palomid-529] | 0 | 0.1 | 0
COc1cc([C@@H]2c3cc4c(cc3[C@@H](O[C@@H]3O[C@@H]5CO[C@@H](C)O[C@H]5[C@H](O)[C@H]3O)[C@H]3COC(=O)[C@H]23)OCO4)cc(OC)c1O [Etoposide] | 4.3 | 9.5 | 6.9
N#CCNC(=O)c1ccc(-c2ccnc(Nc3ccc(N4CCOCC4)cc3)n2)cc1 [Momelotinib] | 3.7 | 3.3 | 2.7
CCCC(CCC)C(=O)O [Valproic acid] | 0 | 0 | 0
CNc1nc(Nc2cn(C(C)(C)C#N)nc2C)ncc1C(F)(F)F [GNE-0877] | 0 | 0 | 0
NC(=O)Nc1cc(-c2cccc(F)c2)sc1C(=O)N[C@H]1CCCNC1 [AZD7762] | 0 | 0.3 | 0.2
CCN(CC)CCOc1ccc(C(=C(Cl)c2ccccc2)c2ccccc2)cc1 [Clomifene] | 4.4 | 5.3 | 4.7
CC(=O)OC[C@H]1O[C@@H]([S-])[C@H](OC(C)=O)[C@@H](OC(C)=O)[C@@H]1OC(C)=O.CCP(CC)CC.[Au+] [Auranofin] | 4.2 | 4.7 | 4.2
CC(O)c1cc(C(=O)N[C@@H](C)Cn2ccc(-c3ccc(C#N)c(Cl)c3)n2)n[nH]1 (stereo not given in full) [ODM-201] | 0 | 0 | 0
COc1cc2nccc(Oc3ccc(NC(=O)Nc4cc(C)on4)c(Cl)c3)c2cc1OC [Tivozanib] | 2.5 | 4.4 | 8.2
